# Results published in article PMC5033673 (Cancer research, 2016).
# Target: MutSα (MSH2/MSH6 heterodimer) (Homo sapiens, UniProt P43246+P52701)
# Assay: Biacore SPR
# Format: binding
# MutSα (MSH2/MSH6 heterodimer), sequence (P43246 2-934): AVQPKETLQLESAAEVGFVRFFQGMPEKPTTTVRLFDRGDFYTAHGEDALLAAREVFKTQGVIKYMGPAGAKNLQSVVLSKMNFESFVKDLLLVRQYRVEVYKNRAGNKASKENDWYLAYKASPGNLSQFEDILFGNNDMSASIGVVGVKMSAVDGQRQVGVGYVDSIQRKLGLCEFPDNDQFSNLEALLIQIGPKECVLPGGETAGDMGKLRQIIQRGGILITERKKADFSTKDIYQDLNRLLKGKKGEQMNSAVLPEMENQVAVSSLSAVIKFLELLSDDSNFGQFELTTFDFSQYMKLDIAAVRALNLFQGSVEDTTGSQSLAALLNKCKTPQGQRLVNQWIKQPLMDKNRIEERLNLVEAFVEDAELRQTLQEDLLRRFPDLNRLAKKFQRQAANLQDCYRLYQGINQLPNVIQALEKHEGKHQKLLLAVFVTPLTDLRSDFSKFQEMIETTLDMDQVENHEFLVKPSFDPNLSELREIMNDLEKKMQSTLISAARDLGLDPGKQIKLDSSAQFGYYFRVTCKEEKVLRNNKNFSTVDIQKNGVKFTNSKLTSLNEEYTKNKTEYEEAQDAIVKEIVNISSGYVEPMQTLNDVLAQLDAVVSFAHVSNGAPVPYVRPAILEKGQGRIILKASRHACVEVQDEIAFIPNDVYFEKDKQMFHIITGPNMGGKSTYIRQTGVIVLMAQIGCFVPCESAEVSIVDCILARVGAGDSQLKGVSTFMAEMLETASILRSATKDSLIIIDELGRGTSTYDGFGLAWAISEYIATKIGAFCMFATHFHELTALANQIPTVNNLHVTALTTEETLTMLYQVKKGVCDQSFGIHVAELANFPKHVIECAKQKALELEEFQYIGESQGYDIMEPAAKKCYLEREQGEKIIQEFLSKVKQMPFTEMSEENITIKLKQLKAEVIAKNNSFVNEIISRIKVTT
# MutSα (MSH2/MSH6 heterodimer), sequence (P52701 whole entry): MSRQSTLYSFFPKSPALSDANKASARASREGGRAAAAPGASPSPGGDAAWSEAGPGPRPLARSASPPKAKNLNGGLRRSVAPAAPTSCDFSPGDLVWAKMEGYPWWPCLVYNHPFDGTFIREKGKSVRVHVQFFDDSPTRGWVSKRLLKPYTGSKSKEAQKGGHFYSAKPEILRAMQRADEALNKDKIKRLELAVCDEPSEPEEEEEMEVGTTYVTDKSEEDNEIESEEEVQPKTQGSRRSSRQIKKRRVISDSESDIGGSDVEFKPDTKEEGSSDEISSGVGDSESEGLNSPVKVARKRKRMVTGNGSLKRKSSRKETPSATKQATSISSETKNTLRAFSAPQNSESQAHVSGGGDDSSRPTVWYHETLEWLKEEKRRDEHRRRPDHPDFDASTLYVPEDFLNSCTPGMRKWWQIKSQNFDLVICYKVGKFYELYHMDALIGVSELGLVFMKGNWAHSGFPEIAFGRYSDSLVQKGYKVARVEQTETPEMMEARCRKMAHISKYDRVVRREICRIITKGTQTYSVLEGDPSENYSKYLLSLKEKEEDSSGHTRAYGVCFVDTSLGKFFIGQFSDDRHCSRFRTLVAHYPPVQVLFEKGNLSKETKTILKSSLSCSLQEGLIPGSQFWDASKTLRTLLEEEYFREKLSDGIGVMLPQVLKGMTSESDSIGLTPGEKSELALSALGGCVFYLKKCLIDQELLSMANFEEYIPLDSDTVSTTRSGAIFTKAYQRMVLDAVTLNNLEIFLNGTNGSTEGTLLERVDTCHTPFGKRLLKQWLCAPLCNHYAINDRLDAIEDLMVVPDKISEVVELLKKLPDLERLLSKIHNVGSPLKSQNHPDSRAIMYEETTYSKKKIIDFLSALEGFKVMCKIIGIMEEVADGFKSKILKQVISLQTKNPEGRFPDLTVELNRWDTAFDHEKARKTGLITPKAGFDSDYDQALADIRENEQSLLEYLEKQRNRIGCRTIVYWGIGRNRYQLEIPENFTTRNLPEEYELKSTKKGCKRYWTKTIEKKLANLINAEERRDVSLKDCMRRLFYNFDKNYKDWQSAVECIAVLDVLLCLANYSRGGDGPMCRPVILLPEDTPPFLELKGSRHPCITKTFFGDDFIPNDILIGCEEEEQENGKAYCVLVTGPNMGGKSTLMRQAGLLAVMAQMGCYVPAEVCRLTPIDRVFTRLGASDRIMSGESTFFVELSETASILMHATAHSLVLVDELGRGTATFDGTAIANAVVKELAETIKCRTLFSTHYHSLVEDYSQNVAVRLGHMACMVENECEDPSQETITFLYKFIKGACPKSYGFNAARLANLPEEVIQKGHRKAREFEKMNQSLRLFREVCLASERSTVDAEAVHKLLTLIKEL
smiles,measurement,value
"O=c1cc(-c2ccccc2)oc2cc(O)c(O)c(O)c12 [baicalein, 5,6,7-trihydroxyflavone]",Kd,~32.2 µM
